From patent publication US20250179061A1 (SIRONAX LTD., priority 2022, published 2025)
Like-named read-outs stand apart in the source and are kept apart here.

Tested on: HT-29 cells
Test: HT-29 necroptosis cell viability assay (TNF-α/SMAC mimetic/zVAD-FMK, CellTiter-Glo)
Format: cell-based
Conditions: Homo sapiens, read-out: Activity
Summary of the method: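 HT-29 cells (~5,000/well, overnight) in FBS-free McCoy's 5A with TNF-α 10 ng/ml, SMAC mimetic 6 μM and zVAD-FMK 10 μM plus 10-point 1:3 compound titration, 20 h at 37°C. ATP measured by CellTiter-Glo luminescence; IC50 as geometric mean of duplicates.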

[1] = HT-29, HT-29 necroptosis cell viability, IC50 class symbols
[2] = HT-29, HT-29 necroptosis cell viability assay, class symbols for IC50

`Cc1nc(C#N)sc1Oc1ccc(-n2ncn(Cc3c(F)cccc3F)c2=O)cc1` [Example 87, 5-(4-(4-(2,6-difluorobenzyl)-5-oxo-4,5-dihydro-1H-1,2,4-triazol-1-yl)phenoxy)-4-methylthiazole-2-carbonitrile] was tested, and the IC50 (HT-29 cells stimulated with TNF-α (10 ng/ml), SMAC mimetic (6 μM) and zVAD-FMK (10 μM), 20 hours, CellTiter-Glo ATP luminescence, geometric mean IC50 from 10 points) was under 100 nM.
Compound `C[C@H]1[C@@H](N(C)C)CN1c1cc(Oc2ccc(-n3ncn(Cc4c(F)cccc4F)c3=O)cc2F)c(F)cn1` [Example 241, 4-(2,6-difluorobenzyl)-2-(4-((2-((2S,3S)-3-(dimethylamino)-2-methylazetidin-1-yl)-5-fluoropyridin-4-yl)oxy)-3-fluorophenyl)-2,4-dihydro-3H-1,2,4-triazol-3-one] has an IC50 [1] of under 100 nM.
Work on `Cc1nc(C(C)(C)O)sc1Oc1ccc(-n2ncn(Cc3c(F)cccc3F)c2=O)cc1` [Example 473, 4-(2,6-difluorobenzyl)-2-(4-((2-(2-hydroxypropan-2-yl)-4-methylthiazol-5-yl)oxy)phenyl)-2,4-dihydro-3H-1,2,4-triazol-3-one] yielded an IC50 [1] of under 100 nM.
With `Cc1nc(C(=O)NCC2COC2)sc1Oc1ccc(-n2ncn(Cc3ncccc3F)c2=O)cc1F` [Example 607, 5-(2-fluoro-4-(4-((3-fluoropyridin-2-yl)methyl)-5-oxo-4,5-dihydro-1H-1,2,4-triazol-1-yl)phenoxy)-4-methyl-N-(oxetan-3-ylmethyl)thiazole-2-carboxamide] the IC50 [2] was under 100 nM.
`N#C[C@@H]1CCN(c2cc(Oc3ccc(-n4ncn(Cc5c(F)cccc5F)c4=O)cc3)ccn2)C1` [Example 400, (R)-1-(4-(4-(4-(2,6-difluorobenzyl)-5-oxo-4,5-dihydro-1H-1,2,4-triazol-1-yl)phenoxy)pyridin-2-yl)pyrrolidine-3-carbonitrile] was tested, and the IC50 [1] was under 100 nM.
For `Cc1nn(-c2ccc(S(=O)(=O)N3CCN(C4CCCCC4)CC3)cc2)c(=O)n1Cc1ccccc1` [Example 620, 4-benzyl-2-(4-((4-cyclohexylpiperazin-1-yl)sulfonyl)phenyl)-5-methyl-2,4-dihydro-3H-1,2,4-triazol-3-one], the IC50 [2] was 1000 to 10000 nM.
With `Cc1nc(CO)sc1Oc1ccc(-n2ncn(Cc3c(F)cccc3F)c2=O)cc1F` [Example 156, 4-(2,6-difluorobenzyl)-2-(3-fluoro-4-((2-(hydroxymethyl)-4-methylthiazol-5-yl)oxy)phenyl)-2,4-dihydro-3H-1,2,4-triazol-3-one] the IC50 [2] was under 100 nM.
Compound `Cc1cnc(N2CC(C)(N)C2)cc1Oc1ccc(-n2ncn(Cc3c(F)cccc3F)c2=O)cc1F` [Example 422, 2-(4-((2-(3-amino-3-methylazetidin-1-yl)-5-methylpyridin-4-yl)oxy)-3-fluorophenyl)-4-(2,6-difluorobenzyl)-2,4-dihydro-3H-1,2,4-triazol-3-one] has an IC50 [1] of under 100 nM.
With `Nc1cccc(F)c1Oc1ccc(-n2ncn(Cc3c(F)cccc3F)c2=O)cc1` [Example 442, 2-(4-(2-amino-6-fluorophenoxy)phenyl)-4-(2,6-difluorobenzyl)-2,4-dihydro-3H-1,2,4-triazol-3-one] the IC50 [1] was under 100 nM.
`Cc1nc(CC#N)cn1Cc1ccc(-n2ncn(Cc3c(F)cccc3F)c2=O)cc1F` [Example 141, 2-(1-(4-(4-(2,6-difluorobenzyl)-5-oxo-4,5-dihydro-1H-1,2,4-triazol-1-yl)-2-fluorobenzyl)-2-methyl-1H-imidazol-4-yl)acetonitrile] showed an IC50 [2] of 100 to 1000 nM.
`COC1(C#N)CN(c2cc(Oc3ccc(-n4ncn(Cc5c(F)cccc5F)c4=O)cc3)c(Cl)cn2)C1` [Example 319, 1-(5-chloro-4-(4-(4-(2,6-difluorobenzyl)-5-oxo-4,5-dihydro-1H-1,2,4-triazol-1-yl)phenoxy)pyridin-2-yl)-3-methoxyazetidine-3-carbonitrile] gave an IC50 [1] of under 100 nM.
Compound `Cc1nc(C(=O)N2CC(C)(O)C2)sc1Oc1ccc(-n2ncn(Cc3c(F)cccc3F)c2=O)cc1F` [Example 597, 4-(2,6-difluorobenzyl)-2-(3-fluoro-4-((2-(3-hydroxy-3-methylazetidine-1-carbonyl)-4-methylthiazol-5-yl)oxy)phenyl)-2,4-dihydro-3H-1,2,4-triazol-3-one] has an IC50 [2] of under 100 nM.
